Read-outs that look alike come from different tables or passages of the source.
Key:
[1] = DPPH radical scavenging activity; format: biochemical; conditions: 100 μL sample + 100 μL 0.1 mmol/L DPPH in anhydrous ethanol, 30 min dark, room temperature, absorbance 517 nm; sample concentration not given; mean ± SD, at least three repeats
Experimental: Slightly modified according to the previous method, the 100 μL sample solution was mixed with 100 μL 0.1 mmol/L DPPH anhydrous ethanol solution and reacted in the dark at room temperature for 30 min. Then the absorbance was measured at 517 nm. The DPPH free radical scavenging rate of the sample was calculated by the formula below.(1) DPPH radical scavenging rate(%)=(1−A1−A2/A0)×100, where A1 represented the absorbance value the sample reaction with DPPH anhydrous ethanol solution; A2 represented the absorbance value of the sample’s reaction with anhydrous ethanol solution; A0 represented the absorbance of the reaction mixture solution without the sample.

[2] = test system: H2O2-induced HepG2 cells; assay: SOD activity in H2O2-induced HepG2 cells (kit); format: cell-based; conditions: for activity of SOD compared with the model group: peptide pretreatment, H2O2-induced HepG2 cells, p < 0.05
Experimental: (§1) After the medium was discarded, 100 μL peptides of different concentrations were added to the wells and cultured for an additional 24 h. After discarding the medium and then being washed, the cells were incubated with 100 μL of an appropriate concentration of H2O2. After incubation for 2 h, the supernatant was collected, and the content of IL-8 was determined strictly, according to the kit instructions. Afterwards, the cells were washed twice with PBS, and then the cell viability was measured. Alternatively, the cells were disrupted with 300 μL of cell lysate and centrifuged at 6000× g at 4 °C for 15 min. The supernatant was collected and stored at −80 °C. The protein concentration was determined using the Bio-Rad DC analysis with BSA as the standard curve. In addition, the contents of SOD, CAT, and MDA in cell lysates were determined in strict accordance with the kit instructions.

[3] = test system: H2O2-induced HepG2 cells; assay: CAT activity in H2O2-induced HepG2 cells (kit); format: cell-based; conditions: for activity of CAT compared with the model group: peptide pretreatment, H2O2-induced HepG2 cells, p < 0.05
Experimental: as §1

[4] = test system: H2O2-induced HepG2 cells; assay: MDA content in H2O2-induced HepG2 cells (kit); format: cell-based; conditions: peptide pretreatment 24 h, then 1.4 mM H2O2 2 h; cell lysate; mean ± SD; model group 10.31 ± 0.23
Experimental: as §1

[5] = test system: H2O2-induced HepG2 cells; assay: IL-8 content in H2O2-induced HepG2 cells (ELISA kit); format: cell-based; conditions: peptide pretreatment 24 h, then 1.4 mM H2O2 2 h; supernatant; p < 0.05; model group 154.02 ± 2.80 pg/mL
Experimental: as §1

[6] = Hydroxyl radical scavenging activity; format: biochemical; conditions: salicylic acid / FeSO4 / H2O2 6.0 mmol/L, 37 °C, 0.5 h, absorbance 510 nm; sample concentration not given; mean ± SD, at least three repeats
Experimental: The hydroxyl radical scavenging activities of samples were performed as in the previous method with slight modifications. Briefly, 6.0 mmol/L salicylic acid solution and FeSO4 solution were prepared, and 0.5 mL of each solution was added into a reaction tube, followed by the addition of a 0.5 mL sample solution and a 0.5 mL H2O2 solution of 6.0 mmol/L. After mixing, the reaction was conducted in a 37 °C water bath for 0.5 h, and then the absorbance was measured at 510 nm. Meanwhile, the sample was replaced with distilled water and used as the blank group, and H2O2 was replaced with distilled water and used as the control group. The hydroxyl radical scavenging rate of the sample was calculated according to the formula below.(3) hydroxyl radical scavenging rate(%)=(1-A0−A1/A)×100, where A0, A1, and A represented the absorbance values of the sample group, blank group, and control group, respectively.

[7] = test system: HepG2 cells; conditions: 2 h, CCK-8, mean ± SD
Experimental: HepG2 cells were cultured in 96-well plates at a density of 5 × 10^4 cells/mL for 24 h. After the medium was removed, 100 µL of complete medium containing different concentrations of H2O2 (800, 1000, 1200, 1400, 1600 µM) was added and incubated for 2 h. After the medium was discarded, cell viability was determined using the CCK-8 assay to establish the optimal H2O2 concentration for inducing an oxidative stress model. The cells without H2O2 treatment were used as control group.

[8] = ABTS radical scavenging activity; format: biochemical; conditions: 40 μL sample + 160 μL ABTS working solution, 10 min dark, room temperature, absorbance 734 nm; sample concentration not given; mean ± SD, at least three repeats
Experimental: Slightly modified according to the previous method, 7.4 mmol/L ABTS solution was mixed with the 2.6 mmol/L K2S2O8 solution in equal volume, and then was kept in the dark for 16 h. The ABTS working solution was obtained when the mixture was subsequently diluted with anhydrous ethanol to adjust the absorbance to a range of 0.70 ± 0.02 at 734 nm. Then, the sample solution of 40 μL was mixed with 160 μL ABTS working solution and reacted at room temperature for 10 min in the dark on 96 microporous plates. Meanwhile, the sample was replaced with distilled water as the blank. The absorbance was measured at 734 nm, and the ABTS radical scavenging rate of samples was calculated using the formula below.(2) ABTS radical scavenging rate(%)=[…], where A0 and A1 represented the absorbance values of the blank and sample groups.

Compound | DPPH radical scavenging rate [1] | activity of SOD compared with the model group [2] | activity of CAT compared with the model group [3] | MDA content [4] | intracellular IL-8 content compared with the model group [5] | hydroxyl radical scavenging rate [6] | cell viability ([7]; H2O2 0.8 µM) | cell survival rate ([7]; H2O2 1.4 mM) | cell viability ([7]; H2O2 1.6 mM) | ABTS radical scavenging rate [8] | activity of SOD in cells ([2]; peptide pretreatment 24 h, then 1.4 mM H2O2 2 h, cell lysate, mean ± SD, model group 6.17 ± 0.41, control 14.35 ± 0.06) | activity of CAT in cells ([3]; peptide pretreatment 24 h, then 1.4 mM H2O2 2 h, cell lysate, mean ± SD, model group 26.01 ± 1.78, control 60.80 ± 1.10)
LMGPR [Leu-Met-Gly-Pro-Arg, antioxidant peptide identified from yak skin hydrolysate YSP-I, synthesized] | 23.56% ± 2.68% | significantly more improved | significantly more improved | 5.91 ± 0.27 nmol/mg prot | significantly reduced |  |  |  |  |  |  | 
GPAGPQGPR [Gly-Pro-Ala-Gly Pro-Gln-Gly-Pro-Arg, antioxidant peptide identified from yak skin hydrolysate YSP-I, synthesized] |  | significantly more improved | significantly more improved | 5.96 ± 0.30 nmol/mg prot | significantly reduced |  |  |  |  |  |  | 
GFDGD [Gly-Phe-Asp-Gly-Asp, antioxidant peptide identified from yak skin hydrolysate YSP-I, synthesized] |  | significantly more improved | significantly more improved | 5.55 ± 0.16 nmol/mg prot | significantly reduced | 41.61% ± 1.73% |  |  |  |  |  | 
OO [H2O2, hydrogen peroxide] |  |  |  |  |  |  | 91.77 ± 4.53% | 51.29 ± 3.06% | 37.01 ± 3.20% |  |  | 
FGFDGDF [Phe-Gly-Phe-Asp-Gly-Asp-Phe, antioxidant peptide identified from yak skin hydrolysate YSP-I, synthesized] | 25.80% ± 1.82% | significantly more improved | significantly more improved | 3.945 ± 0.21 nmol/mg prot | significantly reduced | 44.44% ± 1.94% |  |  |  | 19.15% ± 1.59% | 11.83 ± 0.16 U/mg prot | 47.49 ± 1.14 U/mg prot
GHNGLDGL [Gly-His-Asn-Gly-Leu-Asp-Gly-Leu, antioxidant peptide identified from yak skin hydrolysate YSP-I, synthesized] |  | significantly more improved | significantly more improved | 4.65 ± 0.39 nmol/mg prot | significantly reduced |  |  |  |  |  |  | 
